The values below come from patent publication US11998551B2, “Treatment of mitochondrial diseases” (FUNDACIÓ HOSPITAL UNIVERSITARI VALL D'HEBRON-INSTITUT DE …, priority 2015, dated 2024).

SMILES strings stand for the structures.

The experiment concerns quiescent fibroblasts from healthy controls. Kind of experiment: mtDNA copy number (quantitative PCR) after EtBr-forced depletion in quiescent fibroblasts from healthy controls. Format: cell-based, human. As to conditions: control cells, 14 days exposure to 5 ng/ml EtBr. As for the experimental part:
Primary cultured fibroblasts were obtained from skin biopsies of patients 1-3 and 4 healthy donors. All subjects gave informed consent in accordance with our Institutional Review Boards and the Declaration of Helsinki.
Cells were seeded in 6-well plates of 9.5 cm^2 in Dulbecco's modified Eagle's medium (DMEM) with 4.5 g/L glucose, supplemented with 2 mM L-glutamine, 100 U/ml penicillin and streptomycin, and 10% dialyzed Fetal Bovine Serum (FBS) (Invitrogen) in a humidified incubator at 37° C. and 5% CO2. After tight confluence was reached, FBS was reduced to 0.1% to induce quiescence and simultaneous treatment with 5 ng/ml of EtBr (ethidium bromide, Merck) was initiated (day 0, t0). Cell media was replaced with the same treatment every 2-3 days for two weeks. At day 14 (t14) EtBr was withdrawn from cell media and the treatment of a set of all cells was initiated with 200 μM of all four deoxynucleosides (dNs): dAdo (deoxyadenosine, Sigma), dCtd (deoxycytidine, Sigma), dGuo (deoxyguanosine, Sigma), dThd (deoxythymidine, Sigma) and 5 μM EHNA (Sigma). A set of cells was left untreated and all parameters were monitored in parallel. Cell media was replaced with the same treatment every 2-3 days for 12 additional days. At days 16 or 17 media were collected and stored at −20° C. until further use. […]
mtDNA copy number was assessed by quantitative PCR as previously described. […]

Consider `CC[n+]1c(-c2ccccc2)c2cc(N)ccc2c2ccc(N)cc21` [EtBr, ethidium bromide], for which the “averaged percentage of mtDNA residual levels ± SE” value is reported as 39.68±6.6%.
